Converted amounts (≈) assume the structure as drawn.

The results in this text go back to ChEMBL document CHEMBL3734741, “Pyrazole clubbed triazolo[1,5-a]pyrimidine hybrids as an anti-tubercular agents: Synthesis, in vitro screening and molecular docking study” (Bioorg Med Chem, 2015).

The test system of series [1] is Mycobacterium tuberculosis. Kind of series: Antituberculosis activity against Mycobacterium tuberculosis H37Rv MTCC 300 at 6.25 ug/ml after 4 weeks by Lowenstein-Jensen medium method. The conditions noted are these: H37Rv MTCC 300, 672 h. It counts as functional.
The nature of series [2]: Selectivity index, ratio of CC50 for African green monkey Vero cells to IC50 Mycobacterium tuberculosis InhA. It counts as functional.
Series [3] can be described thus: Inhibition of Mycobacterium tuberculosis InhA assessed as conversion of crotonoyl-CoA to butyryl-CoA by spectrophotometric method.
Series [4] can be described thus: Cytotoxicity against African green monkey Vero cells after 72 hrs by MTT assay. It counts as cell-based. The note with it: chlorocebus sabaeus. (Tetrazolium dyes change colour on reduction, which living cells bring about.)
Series [5] has as its system Mycobacterium tuberculosis. Nature of the series: Antituberculosis activity against Mycobacterium tuberculosis H37Rv MTCC 300 after 4 weeks by Lowenstein-Jensen medium method. The note with it: H37Rv MTCC 300, 672 h. It counts as functional.

One may read the inhibition as the percentage by which the read-out fell short of the control. In series [1], `CC(C)C1=C(C(=O)Nc2ccccn2)C(c2cn(-c3ccccc3)nc2-c2ccc(Cl)cc2)n2ncnc2N1` (stereo not given) came in with an inhibition at 6.25 µg/mL of 81%.

As for `Cc1ccc(NC(=O)C2=C(C(C)C)Nc3ncnn3C2c2cn(-c3ccccc3)nc2-c2ccc(Cl)cc2)nc1` (stereo not given), the inhibition at 6.25 µg/mL in series [1] is 76%. As for `Cc1ccc(-c2nn(-c3ccccc3)cc2C2C(C(=O)Nc3ccc(Br)cn3)=C(C(C)C)Nc3ncnn32)cc1` (stereo not given), in series [1], the inhibition at 6.25 µg/mL came to 66%. Take `CC(C)C1=C(C(=O)Nc2ccc(Br)cn2)C(c2cn(-c3ccccc3)nc2-c2ccc(F)cc2)n2ncnc2N1` (stereo not given): in series [1], at 6.25 µg/mL the inhibition was 88%. Still for that read-out and setting: the same measure for `CC1=C(C(=O)Nc2ccccn2)C(c2cn(-c3ccccc3)nc2-c2ccc([N+](=O)[O-])cc2)n2ncnc2N1` (stereo not given): 84%; for `CC1=C(C(=O)Nc2ccccn2)C(c2cn(-c3ccccc3)nc2-c2ccc(Cl)cc2)n2ncnc2N1` (stereo not given): 84%.

In series [1], `CC(C)C1=C(C(=O)Nc2ccc(Br)cn2)C(c2cn(-c3ccccc3)nc2-c2ccc([N+](=O)[O-])cc2)n2ncnc2N1` (stereo not given) returned an inhibition at 6.25 µg/mL of 78%. The compound `CC(C)C1=C(C(=O)Nc2ccccn2)C(c2cn(-c3ccccc3)nc2-c2ccc(F)cc2)n2ncnc2N1` (stereo not given) gave an inhibition at 6.25 µg/mL in series [1] of 84%. For `CC1=C(C(=O)Nc2ccccn2)C(c2cn(-c3ccccc3)nc2-c2ccc(C)cc2)n2ncnc2N1` (stereo not given), at 6.25 µg/mL the inhibition in series [1] was 56%.

Turning to `CC(C)C1=C(C(=O)Nc2ccc(Br)cn2)C(c2cn(-c3ccccc3)nc2-c2ccccc2)n2ncnc2N1` (stereo not given), the inhibition at 6.25 µg/mL in series [1] was 54%. The same measure, in the same setting: the result for `Cc1ccc(NC(=O)C2=C(C(C)C)Nc3ncnn3C2c2cn(-c3ccccc3)nc2-c2ccc(F)cc2)nc1` (stereo not given) reads 82%; that for `Cc1ccc(NC(=O)C2=C(C(C)C)Nc3ncnn3C2c2cn(-c3ccccc3)nc2-c2ccccc2)nc1` (stereo not given), 42%; that for `CC1=C(C(=O)Nc2ccccn2)C(c2cn(-c3ccccc3)nc2-c2ccccc2)n2ncnc2N1` (stereo not given), 72%. Compound `Cc1ccc(NC(=O)C2=C(C(C)C)Nc3ncnn3C2c2cn(-c3ccccc3)nc2-c2ccc([N+](=O)[O-])cc2)nc1` (stereo not given) showed an inhibition at 6.25 µg/mL in series [1] of 68%. For orientation: IC50 means the concentration needed to halve the response being measured. One may read the CC50 as the concentration giving 50% cytotoxicity. What is called MIC is the lowest concentration that inhibits growth of the organism. On to `CC1=C(C(=O)Nc2ccc(Br)cn2)C(c2cn(-c3ccccc3)nc2-c2ccccc2)n2ncnc2N1` (stereo not given), for which the “Ratio CC50/IC50” value in series [2] is listed as 29.41. In series [3], the IC50 turned out to be 0.85 µg/mL (≈ 1.54 µM). This compound also registered a CC50 at 72 h in series [4] of 25 µg/mL (≈ 45.2 µM). The compound further had an MIC in series [5] of 3.13 µg/mL (≈ 5.66 µM). The same compound showed an inhibition at 6.25 µg/mL in series [1] of 95%. In turn, `Cc1ccc(-c2nn(-c3ccccc3)cc2C2C(C(=O)Nc3ccccn3)=C(C(C)C)Nc3ncnn32)cc1` (stereo not given) returned an inhibition at 6.25 µg/mL in series [1] of 55%. On the same count and under the same terms, the result for `Cc1ccc(-c2nn(-c3ccccc3)cc2C2C(C(=O)Nc3ccc(C)cn3)=C(C(C)C)Nc3ncnn32)cc1` (stereo not given) reads 46%. Take `CC1=C(C(=O)Nc2ccc(Br)cn2)C(c2cn(-c3ccccc3)nc2-c2ccc(Cl)cc2)n2ncnc2N1` (stereo not given): the “Ratio CC50/IC50” value in series [2] came out at 181.81. Moreover, in series [3], the IC50 is 0.11 µg/mL (≈ 0.187 µM). This compound also showed a CC50 at 72 h in series [4] of 20 µg/mL (≈ 34 µM). Besides, in series [5], 0.78 µg/mL (≈ 1.33 µM) was the least that counted as inhibitory (MIC). In series [1], the inhibition at 6.25 µg/mL came out at 98%. For `CC1=C(C(=O)Nc2ccc(Br)cn2)C(c2cn(-c3ccccc3)nc2-c2ccc(F)cc2)n2ncnc2N1` (stereo not given), the “Ratio CC50/IC50” value in series [2] was determined as 181.81. The IC50 in series [3] is 0.11 µg/mL (≈ 0.193 µM). Further, the midpoint of cytotoxicity in series [4], the CC50 at 72 h, lay at 20 µg/mL (≈ 35 µM). The compound also displayed an MIC in series [5] of 0.39 µg/mL (≈ 0.683 µM). The same compound yielded an inhibition at 6.25 µg/mL in series [1] of 99%. The matching figures for `CC1=C(C(=O)Nc2ccccn2)C(c2cn(-c3ccccc3)nc2-c2ccc(F)cc2)n2ncnc2N1` (stereo not given): 125, 0.16 µg/mL (≈ 0.325 µM), 20 µg/mL (≈ 40.6 µM), 0.78 µg/mL (≈ 1.58 µM) and 99%. For `CC1=C(C(=O)Nc2ccc(C)cn2)C(c2cn(-c3ccccc3)nc2-c2ccc(Cl)cc2)n2ncnc2N1` (stereo not given), the inhibition at 6.25 µg/mL in series [1] turned out to be 79%.

`CC1=C(C(=O)Nc2ccc(C)cn2)C(c2cn(-c3ccccc3)nc2-c2ccc(F)cc2)n2ncnc2N1` (stereo not given): 6.25 µg/mL produced 86% inhibition in series [1]. Take `CC1=C(C(=O)Nc2ccc(Br)cn2)C(c2cn(-c3ccccc3)nc2-c2ccc([N+](=O)[O-])cc2)n2ncnc2N1` (stereo not given): in series [2], the “Ratio CC50/IC50” value is on record as 89.28. In series [3], the IC50 was found to be 0.28 µg/mL (≈ 0.468 µM). This compound had a CC50 at 72 h in series [4] of 25 µg/mL (≈ 41.8 µM). In series [5], it took 1.56 µg/mL (≈ 2.61 µM) to inhibit growth (MIC). Moreover, the inhibition at 6.25 µg/mL in series [1] was determined as 96%. In turn, `CC1=C(C(=O)Nc2ccc(Br)cn2)C(c2cn(-c3ccccc3)nc2-c2ccc(C)cc2)n2ncnc2N1` (stereo not given) had an inhibition at 6.25 µg/mL in series [1] of 64%. Turning to `CC(C)C1=C(C(=O)Nc2ccc(Br)cn2)C(c2cn(-c3ccccc3)nc2-c2ccc(Cl)cc2)n2ncnc2N1` (stereo not given), the inhibition at 6.25 µg/mL in series [1] stood at 84%. The same measure, in the same setting: the same measure for `CC(C)C1=C(C(=O)Nc2ccccn2)C(c2cn(-c3ccccc3)nc2-c2ccc([N+](=O)[O-])cc2)n2ncnc2N1` (stereo not given): 74%; for `CC1=C(C(=O)Nc2ccc(C)cn2)C(c2cn(-c3ccccc3)nc2-c2ccc([N+](=O)[O-])cc2)n2ncnc2N1` (stereo not given): 68%.

`CC1=C(C(=O)Nc2ccc(C)cn2)C(c2cn(-c3ccccc3)nc2-c2ccc(C)cc2)n2ncnc2N1` (stereo not given) returned an inhibition at 6.25 µg/mL in series [1] of 49%. The same measure, in the same setting: the result for `CC(C)C1=C(C(=O)Nc2ccccn2)C(c2cn(-c3ccccc3)nc2-c2ccccc2)n2ncnc2N1` (stereo not given) reads 45%; that for `CC1=C(C(=O)Nc2ccc(C)cn2)C(c2cn(-c3ccccc3)nc2-c2ccccc2)n2ncnc2N1` (stereo not given), 66%.

`CC[C@@H](CO)NCCN[C@@H](CC)CO` [ETHAMBUTOL] gave an MIC in series [5] of 3.12 µg/mL (≈ 15.3 µM). Also, in series [1], at 6.25 µg/mL the inhibition was 99%. In the case of `NNC(=O)c1ccncc1` [ISONIAZID], in series [5], 0.3 µg/mL (≈ 2.19 µM) was the least that counted as inhibitory (MIC). In series [5], `CO[C@H]1/C=C/O[C@@]2(C)Oc3c(C)c(O)c4c(O)c(c(/C=N/N5CCN(C)CC5)c(O)c4c3C2=O)NC(=O)/C(C)=C\C=C\[C@H](C)[C@H](O)[C@@H](C)[C@@H](O)[C@@H](C)[C@H](OC(C)=O)[C@@H]1C` [RIFAMPIN] returned an MIC of 0.5 µg/mL (≈ 0.608 µM). 6.25 µg/mL produced 99% inhibition in series [1].
